Laboratory results published in patent publication US6326023A, “Synergistic anti-malarial formulation” (priority 2000, dated 2001).

Legend:
[1] = system: P. yoelii nigeriensis (MDR II); assay: Resistance pattern of P. yoelii nigeriensis (MDR II) strain to antimalarials/antibiotics (oral) in Swiss mice; assay type: in vivo
Experimental: Swiss mice weighing 20±1 to 25±g of either sex and random laboratory bred at Central Drug Research Institute, Lucknow were used. Mice were routinely infected with 1×10^5 parasitized RBC intraperitoneally using sterile citrate saline as diluent for infected blood. […] From day 4 onwards, tail blood smears were examined after Giemsa staining and percent parasitaemia and mortality was recorded. The parasite (MDR strain) was lethal for Swiss mice and mice died in 6-8 days after developing parasitaemia above 40% to 100% infection of RBC, Mortality was 100% in mice.

[2] = human, in vivo; cited from earlier work
P. falciparum = details: rectal suppository, in 48-56 h; cited from earlier work
[3] = im; cited from earlier work

Structure (SMILES): CCN(CC)Cc1cc(Nc2ccnc3cc(Cl)ccc23)ccc1O [Amodiaquine]
- Parasite response ([1]; 128 mg/kg × 4 days): Resistant

Structure (SMILES): CCN(CC)CCCC(C)Nc1ccnc2cc(Cl)ccc12 (stereo not shown) [Chloroquine]
- Parasite response ([1]; 128 mg/kg × 4 days): Resistant

Structure (SMILES): O=C(O)c1cn(C2CC2)c2cc(N3CCNCC3)c(F)cc2c1=O [Ciprofloxacine]
- Parasite response ([1]; 50 mg/kg × 4 days): Resistant

Structure (SMILES): CN(C)[C@@H]1C(O)=C(C(N)=O)C(=O)[C@@]2(O)C(O)=C3C(=O)c4c(O)ccc(Cl)c4[C@@H](O)[C@H]3C[C@@H]12 [Demeclocycline]
- Parasite response ([1]; 500 mg/kg × 4 days): Resistant

Structure (SMILES): C[C@H]1c2cccc(O)c2C(=O)C2=C(O)[C@]3(O)C(=O)C(C(N)=O)=C(O)[C@@H](N(C)C)[C@@H]3[C@@H](O)[C@@H]21 [Doxycycline]
- Parasite response ([1]; 25 mg/kg × 4 days): Resistant

Structure (SMILES): CC[C@H]1OC(=O)[C@H](C)[C@@H](O[C@H]2C[C@@](C)(OC)[C@@H](O)[C@H](C)O2)[C@H](C)[C@@H](O[C@@H]2O[C@H](C)C[C@H](N(C)C)[C@H]2O)[C@](C)(O)C[C@@H](C)C(=O)[C@H](C)[C@@H](O)[C@]1(C)O [Erythromycin]
- Parasite response ([1]; 250 mg/kg × 4 days): Resistant

Structure (SMILES): CCCCN(CCCC)CCC(O)c1cc2c(Cl)cc(Cl)cc2c2cc(C(F)(F)F)ccc12 (stereo not shown) [Halofantrine]
- Parasite response ([1]; 32 mg/kg × 4 days): Resistant
- Cardiotoxicity [2]: increased risk of cardiotoxicity

Structure (SMILES): OC(c1cc(C(F)(F)F)nc2c(C(F)(F)F)cccc12)C1CCCCN1 (stereo not shown) [Mefloquine]
- Parasite response ([1]; 128 mg/kg × 4 days): Resistant

Structure (SMILES): CCN(CC)CCCC(C)Nc1c2ccc(Cl)cc2nc2ccc(OC)cc12 (stereo not shown) [Mepacrine]
- Parasite response ([1]; 128 mg/kg × 4 days): Resistant

Structure (SMILES): CCn1cc(C(=O)O)c(=O)c2cc(F)c(N3CCNCC3)cc21 [Norfloxacine]
- Parasite response ([1]; 50 mg/kg × 4 days): Resistant

Structure (SMILES): CN(C)C1C(=O)C(C(N)=O)=C(O)C2(O)C(=O)C3=C(O)c4c(O)cccc4C(C)(O)C3C(O)C12 (stereo not shown) [Oxytetracycline]
- Parasite response ([1]; 500 mg/kg × 4 days): Resistant

Structure (SMILES): CCc1nc(N)nc(N)c1-c1ccc(Cl)cc1 [Pyrimethamine]
- Parasite response ([1]; 16 mg/kg × 4 days): Resistant

Structure (SMILES): C=C[C@H]1C[N@@]2CC[C@H]1C[C@@H]2[C@@H](O)c1ccnc2ccc(OC)cc12 [Quinidine]
- Parasite response ([1]; 400 mg/kg × 4 days): Resistant

Structure (SMILES): C=C[C@H]1C[N@@]2CC[C@H]1C[C@H]2[C@H](O)c1ccnc2ccc(OC)cc12 [Quinine]
- Parasite response ([1]; 400 mg/kg × 4 days): Resistant

Structure (SMILES): CN(C)C1C(=O)C(C(N)=O)=C(O)C2(O)C(=O)C3=C(O)c4c(O)cccc4C(C)(O)C3CC12 (stereo not shown) [Tetracycline]
- Parasite response ([1]; 500 mg/kg × 4 days): Resistant

Structure (SMILES): COc1cc(C)c2c(Oc3cccc(C(F)(F)F)c3)c(OC)cc(NC(C)CCCN)c2n1 (stereo not shown) [WR238605]
- Parasite response ([1]; 10 mg/kg × 7 days): Resistant

Structure (SMILES): C[C@@H]1CC[C@H]2[C@@H](C)C(=O)O[C@@H]3O[C@@]4(C)CC[C@@H]1[C@]32OO4 [artemisinin]
- Dose needed for complete parasite clearance (P. falciparum): 2800 mg

Structure (SMILES): C[C@H]1[C@H](OC(=O)CCC(=O)O)O[C@@H]2O[C@@]3(C)CC[C@H]4[C@H](C)CC[C@@H]1[C@@]24OO3 [artesunate]
- LD50 [3]: 475 mg/kg
